{"source": "DBAASP", "experiment_in_all_cases": "≥ marks a high value that may be exact or a test limit, other limits are often not marked, values filed in µg/mL are converted to µM", "key": {"[1]": {"tested_on": "Streptococcus sanguinis NY101"}, "Streptococcus mutans T8": {"tested_on": "Streptococcus mutans T8"}, "[2]": {"tested_on": "Streptococcus mutans ATCC 104495"}, "[3]": {"tested_on": "Streptococcus mutans ATCC 25175"}, "[4]": {"tested_on": "Streptococcus gordonii ATCC 10558"}, "[5]": {"tested_on": "Streptococcus mutans UA140"}, "[6]": {"tested_on": "Streptococcus mutans UA159"}, "[7]": {"tested_on": "Streptococcus gordonii DL1"}, "[8]": {"tested_on": "Streptococcus sanguinis ATCC 10556"}, "[9]": {"tested_on": "Streptococcus salivarius K12"}, "[10]": {"tested_on": "Streptococcus mutans comD"}, "[11]": {"tested_on": "Klebsiella aerogenes ATCC 13048"}, "[12]": {"tested_on": "Candida albicans ATCC 10231"}, "[13]": {"tested_on": "Staphylococcus epidermidis ATCC 12222"}, "[14]": {"tested_on": "Bacillus subtilis ATCC 23857"}, "[15]": {"tested_on": "Staphylococcus aureus ATCC 29737"}, "[16]": {"tested_on": "Escherichia coli ATCC 25922"}, "[17]": {"tested_on": "Pseudomonas aeruginosa ATCC 9027"}, "[18]": {"tested_on": "Staphylococcus aureus ATCC 29213"}, "[19]": {"tested_on": "Staphylococcus aureus ATCC 43300"}, "[20]": {"tested_on": "Staphylococcus aureus ATCC 25923"}, "[21]": {"tested_on": "Listeria monocytogenes ATCC BAA-751"}, "[22]": {"tested_on": "Salmonella enterica subsp. enterica serovar Typhimurium ATCC 14028"}, "[23]": {"tested_on": "Bacillus cereus ATCC 11778"}, "[24]": {"tested_on": "Escherichia coli KCTC 1682"}, "[25]": {"tested_on": "Candida albicans TIMM 1768"}, "[26]": {"tested_on": "Pseudomonas aeruginosa KCTC 1637"}, "[27]": {"tested_on": "Salmonella typhimurium KCTC 1926"}, "[28]": {"tested_on": "Bacillus subtilis KCTC 1918"}, "[29]": {"tested_on": "Aspergillus fumigatus KCTC 4165"}, "[30]": {"tested_on": "Streptococcus pyogenes KCTC 3096"}, "[31]": {"tested_on": "Staphylococcus aureus KCTC 1621"}, "[32]": {"tested_on": "Pseudomonas fluorescens ATCC 13525"}, "[33]": {"tested_on": "Bacillus subtilis ATCC 6633"}, "[34]": {"tested_on": "Staphylococcus aureus ATCC 2592"}, "[35]": {"tested_on": "Candida albicans ATCC 2002"}, "[36]": {"tested_on": "Staphylococcus epidermidis ATCC 12228"}, "Staphylococcus aureus": {"tested_on": "Staphylococcus aureus"}, "[37]": {"tested_on": "Corynebacterium diphtheriae ATCC 8024"}, "[38]": {"tested_on": "Escherichia coli ATCC 2592"}, "[39]": {"tested_on": "Staphylococcus aureus ATCC 6538"}, "[40]": {"tested_on": "Shigella flexneri ATCC 203"}, "[41]": {"tested_on": "Micrococcus luteus ATCC 9341"}, "[42]": {"tested_on": "Candida albicans ATCC 36232"}}, "data": [{"smiles": "CC(C)C[C@H](NC(=O)[C@H](C)NC(=O)[C@H](CCC(N)=O)NC(=O)[C@@H](NC(=O)[C@H](Cc1ccccc1)NC(=O)[C@H](CO)NC(=O)[C@H](CCCN=C(N)N)NC(=O)[C@H](CC(N)=O)NC(=O)[C@H](Cc1ccccc1)NC(=O)[C@H](CC(C)C)NC(=O)[C@H](CCCN=C(N)N)NC(=O)[C@H](Cc1ccccc1)NC(=O)[C@H](Cc1ccccc1)NC(=O)[C@@H](N)[C@@H](C)O)[C@@H](C)O)C(=O)NCC(=O)N[C@@H](CCCCN)C(=O)O", "note": "[TFFRLFNRSFTQALGK]", "values": [{"measurement": "MIC", "setting": "[1]", "result": "≥ 60", "unit": "µM"}, {"measurement": "MIC", "setting": "Streptococcus mutans T8", "result": "≥ 60", "unit": "µM"}, {"measurement": "MIC", "setting": "[2]", "result": "≥ 64", "unit": "µM"}, {"measurement": "MIC", "setting": "[3]", "result": "≥ 60", "unit": "µM"}, {"measurement": "MIC", "setting": "[4]", "result": "≥ 64", "unit": "µM"}, {"measurement": "MIC", "setting": "[5]", "result": "≥ 64", "unit": "µM"}, {"measurement": "MIC", "setting": "[6]", "result": "≥ 60", "unit": "µM"}, {"measurement": "MIC", "setting": "[7]", "result": "≥ 60", "unit": "µM"}, {"measurement": "MIC", "setting": "[8]", "result": "≥ 64", "unit": "µM"}, {"measurement": "MIC", "setting": "[9]", "result": "≥ 64", "unit": "µM"}, {"measurement": "MIC", "setting": "[10]", "result": "≥ 60", "unit": "µM"}]}, {"smiles": "CC(C)C[C@H](NC(=O)[C@H](CC(C)C)NC(=O)[C@H](CCCCN)NC(=O)[C@H](CCCCN)NC(=O)[C@H](CC(C)C)NC(=O)[C@H](CC(C)C)NC(=O)[C@H](CCCCN)NC(=O)[C@H](CCCCN)NC(=O)[C@H](CC(C)C)NC(=O)[C@@H](N)CC(C)C)C(=O)N[C@@H](CCCCN)C(=O)N[C@@H](CCCCN)C(N)=O", "note": "[LLKKLLKKLLKK]", "values": [{"measurement": "MIC", "setting": "[11]", "result": "≥ 341", "unit": "µM"}, {"measurement": "MIC", "setting": "[12]", "result": 85.3, "unit": "µM"}, {"measurement": "MIC", "setting": "[13]", "result": "≥ 43", "unit": "µM"}, {"measurement": "MIC", "setting": "[14]", "result": 21.4, "unit": "µM"}, {"measurement": "MIC", "setting": "[15]", "result": "≥ 341", "unit": "µM"}, {"measurement": "MIC", "setting": "[16]", "result": "> 341", "unit": "µM"}, {"measurement": "MIC", "setting": "[17]", "result": 43, "unit": "µM"}]}, {"smiles": "CC[C@H](C)[C@H](NC(=O)CNC(=O)[C@H](CCCCN)NC(=O)[C@@H](NC(=O)[C@H](CC(C)C)NC(=O)[C@H](CO)NC(=O)CNC(=O)[C@H](CC(C)C)NC(=O)CNC(=O)[C@H](C)NC(=O)[C@H](CCCCN)NC(=O)[C@H](Cc1ccccc1)NC(=O)[C@@H](NC(=O)[C@H](CCC(=O)O)NC(=O)[C@H](CCCCN)NC(=O)[C@H](CC(C)C)NC(=O)CN)[C@@H](C)CC)C(C)C)C(=O)N[C@@H](C)C(=O)N[C@@H](C)C(=O)N[C@@H](Cc1cnc[nH]1)C(=O)N[C@H](C(=O)N[C@@H](C)C(=O)N[C@@H](CO)C(=O)O)C(C)C", "note": "[GLKEIFKAGLGSLVKGIAAHVAS]", "values": [{"measurement": "MIC", "setting": "[18]", "result": "> 250", "unit": "µM"}, {"measurement": "MIC", "setting": "[19]", "result": "> 250", "unit": "µM"}, {"measurement": "MIC", "setting": "[20]", "result": 250, "unit": "µM"}, {"measurement": "MIC", "setting": "[21]", "result": "≥ 125", "unit": "µM"}, {"measurement": "MIC", "setting": "[22]", "result": 62.5, "unit": "µM"}, {"measurement": "MIC", "setting": "[16]", "result": 15.2, "unit": "µM"}, {"measurement": "MIC", "setting": "[17]", "result": 31.3, "unit": "µM"}, {"measurement": "MIC", "setting": "[23]", "result": "≥ 250", "unit": "µM"}]}, {"smiles": "CC[C@H](C)[C@H](NC(=O)[C@H](CCCCN)NC(=O)[C@H](CCCCN)NC(=O)[C@H](CC(C)C)NC(=O)[C@H](CCCCN)NC(=O)[C@H](CCC(=O)O)NC(=O)CN)C(=O)NCC(=O)N[C@@H](CCC(N)=O)C(=O)N[C@@H](CCCCN)C(=O)N[C@H](C(=O)N[C@@H](CCCCN)C(=O)N[C@@H](CCCCN)C(=O)N[C@@H](Cc1ccccc1)C(=O)N[C@@H](Cc1ccccc1)C(=O)N[C@@H](CCC(N)=O)C(=O)N[C@@H](CCCCN)C(=O)N[C@@H](CC(C)C)C(=O)O)[C@@H](C)CC", "note": "[GEKLKKIGQKIKKFFQKL]", "values": [{"measurement": "MIC", "setting": "[24]", "result": 25, "unit": "µM"}, {"measurement": "MIC", "setting": "[25]", "result": "≥ 50", "unit": "µM"}, {"measurement": "MIC", "setting": "[26]", "result": 6.25, "unit": "µM"}, {"measurement": "MIC", "setting": "[27]", "result": 12.5, "unit": "µM"}, {"measurement": "MIC", "setting": "[28]", "result": 25, "unit": "µM"}, {"measurement": "MIC", "setting": "[29]", "result": 25, "unit": "µM"}, {"measurement": "MIC", "setting": "[30]", "result": 25, "unit": "µM"}, {"measurement": "MIC", "setting": "[31]", "result": 25, "unit": "µM"}]}, {"smiles": "CC[C@H](C)[C@H](NC(=O)[C@H](C)NC(=O)[C@@H](NC(=O)[C@@H]1CCCN1C(=O)[C@H](CC(C)C)NC(=O)[C@@H](NC(=O)[C@H](CC(N)=O)NC(=O)[C@H](C)NC(=O)[C@H](C)NC(=O)[C@@H](NC(=O)[C@H](CCCCN)NC(=O)[C@H](CC(C)C)NC(=O)[C@H](C)NC(=O)[C@@H](NC(=O)CNC(=O)[C@H](Cc1ccccc1)NC(=O)[C@@H](N)Cc1ccccc1)[C@@H](C)O)[C@@H](C)CC)C(C)C)[C@@H](C)O)C(=O)N[C@H]1CSSC[C@@H](C(=O)O)NC(=O)[C@H](CCCCN)NC(=O)[C@H](CCCCN)NC(=O)[C@H](CC(C)C)NC(=O)[C@H]([C@@H](C)CC)NC(=O)[C@H](CCCCN)NC1=O", "note": "[FFGTALKIAANVLPTAICKILKKC]", "values": [{"measurement": "MIC", "setting": "[32]", "result": 31.2, "unit": "µM"}, {"measurement": "MIC", "setting": "[33]", "result": 2.34, "unit": "µM"}, {"measurement": "MIC", "setting": "[34]", "result": 3.9, "unit": "µM"}, {"measurement": "MIC", "setting": "[35]", "result": 19.5, "unit": "µM"}]}, {"smiles": "CC[C@H](C)[C@H](NC(=O)[C@H](CC(=O)O)NC(=O)[C@H](CS)NC(=O)[C@@H](NC(=O)[C@@H](N)C(C)C)[C@@H](C)O)C(=O)N[C@@H](CC(C)C)C(=O)N[C@@H](CO)C(=O)N[C@H](C(=O)N[C@@H](CCC(=O)O)C(=O)N[C@@H](C)C(=O)N[C@@H](CCCCN)C(=O)NCC(=O)N[C@H](C(=O)N[C@@H](CCCCN)C(=O)N[C@@H](CC(C)C)C(N)=O)C(C)C)C(C)C", "note": "[VTCDILSVEAKGVKL]", "values": [{"measurement": "MIC", "setting": "[36]", "result": "> 63.5", "unit": "µM"}, {"measurement": "MIC", "setting": "Staphylococcus aureus", "result": "> 63.5", "unit": "µM"}, {"measurement": "MIC", "setting": "[37]", "result": "≥ 63.5", "unit": "µM"}, {"measurement": "MIC", "setting": "[38]", "result": "≥ 63.5", "unit": "µM"}, {"measurement": "MIC", "setting": "[39]", "result": "> 63.5", "unit": "µM"}, {"measurement": "MIC", "setting": "[40]", "result": "≥ 63.5", "unit": "µM"}, {"measurement": "MIC", "setting": "[41]", "result": "≥ 63.5", "unit": "µM"}, {"measurement": "MIC", "setting": "[33]", "result": "≥ 63.5", "unit": "µM"}, {"measurement": "MIC", "setting": "[17]", "result": "> 63.5", "unit": "µM"}, {"measurement": "MIC", "setting": "[42]", "result": "≥ 63.5", "unit": "µM"}]}]}
